Test results taken from PubChem BioAssay AID2060502 (Molecular Pharmacology Branch, DTP, NCI, 2025).

System: 885724-159-R-J1-PDC complex spheroid viability
Experiment: Anticancer human tumor 885724-159-R-J1-PDC patient-derived pancreatic adenocarcinoma cell line growth inhibition [GQUAD]
Settings: for IC50: curve of first compound; for viability, T/C: stronger effect = lower value
In short: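 Multi-cell-type spheroids of tumor cells with HUVEC and mesenchymal stem cells, treated with drug combinations. Concentrations descend in half-log steps from near clinical Cmax, or from 10 microM where Cmax is unknown; viability read-out.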

[1] = second compound 0.0316 µM, first compound 0.0316 µM
[2] = second compound 0.0316 µM, first compound 0.1 µM
[3] = second compound 0.0316 µM, first compound 0.316 µM
[4] = second compound 0.0316 µM, first compound 1 µM
[5] = second compound 0.0316 µM, first compound 3.16 µM
[6] = second compound 0.0316 µM, first compound 10 µM
[7] = second compound 0.1 µM, first compound 0.0316 µM
[8] = second compound 0.1 µM, first compound 0.1 µM
[9] = second compound 0.1 µM, first compound 0.316 µM
[10] = second compound 0.1 µM, first compound 1 µM
[11] = second compound 0.1 µM, first compound 3.16 µM
[12] = second compound 0.1 µM, first compound 10 µM
[13] = second compound 0.316 µM, first compound 0.0316 µM
[14] = second compound 0.316 µM, first compound 0.1 µM
[15] = second compound 0.316 µM, first compound 0.316 µM
[16] = second compound 0.316 µM, first compound 1 µM
[17] = second compound 0.316 µM, first compound 3.16 µM
[18] = second compound 0.316 µM, first compound 10 µM
[19] = second compound 1 µM, first compound 0.0316 µM
[20] = second compound 1 µM, first compound 0.1 µM
[21] = second compound 1 µM, first compound 0.316 µM
[22] = second compound 1 µM, first compound 1 µM
[23] = second compound 1 µM, first compound 3.16 µM
[24] = second compound 1 µM, first compound 10 µM
[25] = second compound 3.16 µM, first compound 0.0316 µM
[26] = second compound 3.16 µM, first compound 0.1 µM
[27] = second compound 3.16 µM, first compound 0.316 µM
[28] = second compound 3.16 µM, first compound 1 µM
[29] = second compound 3.16 µM, first compound 3.16 µM
[30] = second compound 3.16 µM, first compound 10 µM
[31] = second compound 10 µM, first compound 0.0316 µM
[32] = second compound 10 µM, first compound 0.1 µM
[33] = second compound 10 µM, first compound 0.316 µM
[34] = second compound 10 µM, first compound 1 µM
[35] = second compound 10 µM, first compound 3.16 µM
[36] = second compound 10 µM, first compound 10 µM
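Also: spheroids exposed to agents for seven days before readout.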
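For viability, T/C in this document: percent of vehicle control viability where 100% = DMSO wells.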

## CC1COCCN1c1cc(C2(S(C)(=N)=O)CC2)nc(-c2ccnc3[nH]ccc23)n1 (stereo not drawn) + CN(C)c1ccc(Nc2c3ccc(NC(=O)CCN4CCCC4)cc3nc3cc(NC(=O)CCN4CCCC4)ccc23)cc1
Second compound 0.0316 µM
  IC50: > 10000 nM
Second compound 0.1 µM
  IC50: > 10000 nM
Second compound 0.316 µM
  IC50: > 10000 nM
Second compound 1 µM
  IC50: > 10000 nM
Second compound 3.16 µM
  IC50: > 10000 nM
Second compound 10 µM
  IC50: > 10000 nM
[1]
  viability, T/C: 102%
[2]
  viability, T/C: 106%
[3]
  viability, T/C: 98.1%
[4]
  viability, T/C: 98.6%
[5]
  viability, T/C: 69.1%
[6]
  viability, T/C: 79.6%
[7]
  viability, T/C: 87.7%
[8]
  viability, T/C: 93.7%
[9]
  viability, T/C: 82%
[10]
  viability, T/C: 87%
[11]
  viability, T/C: 79.3%
[12]
  viability, T/C: 75.3%
[13]
  viability, T/C: 84.5%
[14]
  viability, T/C: 89.6%
[15]
  viability, T/C: 92.3%
[16]
  viability, T/C: 75%
[17]
  viability, T/C: 80%
[18]
  viability, T/C: 63.9%
[19]
  viability, T/C: 89.4%
[20]
  viability, T/C: 74.3%
[21]
  viability, T/C: 76.3%
[22]
  viability, T/C: 73.2%
[23]
  viability, T/C: 76.8%
[24]
  viability, T/C: 53%
[25]
  viability, T/C: 76.3%
[26]
  viability, T/C: 65.1%
[27]
  viability, T/C: 65.3%
[28]
  viability, T/C: 64%
[29]
  viability, T/C: 73%
[30]
  viability, T/C: 51.6%
[31]
  viability, T/C: 71.9%
[32]
  viability, T/C: 81.8%
[33]
  viability, T/C: 85.4%
[34]
  viability, T/C: 67%
[35]
  viability, T/C: 71.9%
[36]
  viability, T/C: 63%

## C=CC(=O)N1CCN(c2nc(=O)n(-c3c(C)ccnc3C(C)C)c3nc(-c4c(O)cccc4F)c(F)cc23)C(C)C1 (stereo not drawn) + Cc1[nH]c2ccc(F)cc2c1-c1nc2c3cccnc3c3ncccc3c2[nH]1
Second compound 0.0316 µM
  IC50: > 10000 nM
Second compound 0.1 µM
  IC50: > 10000 nM
Second compound 0.316 µM
  IC50: > 10000 nM
Second compound 1 µM
  IC50: > 10000 nM
Second compound 3.16 µM
  IC50: < 31.6 nM
Second compound 10 µM
  IC50: > 10000 nM
[1]
  viability, T/C: 97.3%
[2]
  viability, T/C: 106%
[3]
  viability, T/C: 98.4%
[4]
  viability, T/C: 104%
[5]
  viability, T/C: 98%
[6]
  viability, T/C: 97.2%
[7]
  viability, T/C: 105%
[8]
  viability, T/C: 97.6%
[9]
  viability, T/C: 98.7%
[10]
  viability, T/C: 106%
[11]
  viability, T/C: 109%
[12]
  viability, T/C: 99.2%
[13]
  viability, T/C: 95.5%
[14]
  viability, T/C: 105%
[15]
  viability, T/C: 92.8%
[16]
  viability, T/C: 94.3%
[17]
  viability, T/C: 122%
[18]
  viability, T/C: 88.6%
[19]
  viability, T/C: 73.7%
[20]
  viability, T/C: 71.9%
[21]
  viability, T/C: 69.7%
[22]
  viability, T/C: 73.6%
[23]
  viability, T/C: 78.7%
[24]
  viability, T/C: 73.7%
[25]
  viability, T/C: 45.9%
[26]
  viability, T/C: 29.1%
[27]
  viability, T/C: 33.4%
[28]
  viability, T/C: 38.5%
[29]
  viability, T/C: 33.4%
[30]
  viability, T/C: 27.8%
[31]
  viability, T/C: 64.3%
[32]
  viability, T/C: 70.3%
[33]
  viability, T/C: 72.1%
[34]
  viability, T/C: 79.2%
[35]
  viability, T/C: 73%
[36]
  viability, T/C: 65.9%

## COc1cccc2c1C(=O)c1c(O)c3c(c(O)c1C2=O)CC(O)(C(=O)CO)CC3OC1CC(N)C(O)C(C)O1 (stereo not drawn) + CN(C)c1ccc(Nc2c3ccc(NC(=O)CCN4CCCC4)cc3nc3cc(NC(=O)CCN4CCCC4)ccc23)cc1
Second compound 0.0316 µM
  IC50: 2170 nM
Second compound 0.1 µM
  IC50: 2010 nM
Second compound 0.316 µM
  IC50: 1730 nM
Second compound 1 µM
  IC50: 1580 nM
Second compound 3.16 µM
  IC50: 1620 nM
Second compound 10 µM
  IC50: 1110 nM
[1]
  viability, T/C: 101%
[2]
  viability, T/C: 96.3%
[3]
  viability, T/C: 96.2%
[4]
  viability, T/C: 73.9%
[5]
  viability, T/C: 38.1%
[6]
  viability, T/C: 1.56%
[7]
  viability, T/C: 89.4%
[8]
  viability, T/C: 95.5%
[9]
  viability, T/C: 81%
[10]
  viability, T/C: 73.6%
[11]
  viability, T/C: 35.4%
[12]
  viability, T/C: 2.82%
[13]
  viability, T/C: 88.6%
[14]
  viability, T/C: 87.8%
[15]
  viability, T/C: 80.7%
[16]
  viability, T/C: 55.3%
[17]
  viability, T/C: 40.5%
[18]
  viability, T/C: 1.92%
[19]
  viability, T/C: 81.1%
[20]
  viability, T/C: 75%
[21]
  viability, T/C: 68.6%
[22]
  viability, T/C: 57%
[23]
  viability, T/C: 39.8%
[24]
  viability, T/C: 1.53%
[25]
  viability, T/C: 83.8%
[26]
  viability, T/C: 71%
[27]
  viability, T/C: 78.7%
[28]
  viability, T/C: 59.2%
[29]
  viability, T/C: 35.1%
[30]
  viability, T/C: 1.32%
[31]
  viability, T/C: 74.2%
[32]
  viability, T/C: 79.7%
[33]
  viability, T/C: 59.1%
[34]
  viability, T/C: 52.5%
[35]
  viability, T/C: 32.7%
[36]
  viability, T/C: 1.06%

## CCc1c2c(nc3ccc(O)cc13)-c1cc3c(c(=O)n1C2)COC(=O)[C@]3(O)CC + CN(C)c1ccc(Nc2c3ccc(NC(=O)CCN4CCCC4)cc3nc3cc(NC(=O)CCN4CCCC4)ccc23)cc1
Second compound 0.0316 µM
  IC50: 56.8 nM
Second compound 0.1 µM
  IC50: 59.5 nM
Second compound 0.316 µM
  IC50: 48.8 nM
Second compound 1 µM
  IC50: 23.8 nM
Second compound 3.16 µM
  IC50: 21.7 nM
Second compound 10 µM
  IC50: 20 nM
Second compound 0.0316 µM, first compound 0.000999 µM
  viability, T/C: 93.4%
Second compound 0.0316 µM, first compound 0.00316 µM
  viability, T/C: 78.9%
Second compound 0.0316 µM, first compound 0.00999 µM
  viability, T/C: 66.8%
[1]
  viability, T/C: 56.9%
Second compound 0.0316 µM, first compound 0.0999 µM
  viability, T/C: 50.8%
[3]
  viability, T/C: 9.22%
Second compound 0.1 µM, first compound 0.000999 µM
  viability, T/C: 93.7%
Second compound 0.1 µM, first compound 0.00316 µM
  viability, T/C: 72.2%
Second compound 0.1 µM, first compound 0.00999 µM
  viability, T/C: 63.6%
[7]
  viability, T/C: 59.7%
Second compound 0.1 µM, first compound 0.0999 µM
  viability, T/C: 51.1%
[9]
  viability, T/C: 7.61%
Second compound 0.316 µM, first compound 0.000999 µM
  viability, T/C: 83.1%
Second compound 0.316 µM, first compound 0.00316 µM
  viability, T/C: 73.1%
Second compound 0.316 µM, first compound 0.00999 µM
  viability, T/C: 63.9%
[13]
  viability, T/C: 48.1%
Second compound 0.316 µM, first compound 0.0999 µM
  viability, T/C: 51.6%
[15]
  viability, T/C: 9.1%
Second compound 1 µM, first compound 0.000999 µM
  viability, T/C: 83.3%
Second compound 1 µM, first compound 0.00316 µM
  viability, T/C: 65%
Second compound 1 µM, first compound 0.00999 µM
  viability, T/C: 56.6%
[19]
  viability, T/C: 47.4%
Second compound 1 µM, first compound 0.0999 µM
  viability, T/C: 41.8%
[21]
  viability, T/C: 9.11%
Second compound 3.16 µM, first compound 0.000999 µM
  viability, T/C: 67.1%
Second compound 3.16 µM, first compound 0.00316 µM
  viability, T/C: 60.4%
Second compound 3.16 µM, first compound 0.00999 µM
  viability, T/C: 53.7%
[25]
  viability, T/C: 42.7%
Second compound 3.16 µM, first compound 0.0999 µM
  viability, T/C: 40.1%
[27]
  viability, T/C: 8.41%
Second compound 10 µM, first compound 0.000999 µM
  viability, T/C: 71%
Second compound 10 µM, first compound 0.00316 µM
  viability, T/C: 70.1%
Second compound 10 µM, first compound 0.00999 µM
  viability, T/C: 50.2%
[31]
  viability, T/C: 42.9%
Second compound 10 µM, first compound 0.0999 µM
  viability, T/C: 39.2%
[33]
  viability, T/C: 9.18%
